According to patent USRE41920E1, “Isobutylgaba and its derivatives for the treatment of pain” (Warner-Lambert Company LLC, priority 1997, dated 2010):

Key:
[1] = test system: formalin-induced hind paw licking and biting; assay: Rat paw formalin test; format: in vivo; settings: for effect on the early phase of the formalin response / minimum effective dose (MED), block of licking/biting behavior during the late phase of the formalin response: s.c. 1 hour before formalin; for effect on the early phase of the formalin response: early phase (0-10 minutes), any of the doses tested; for minimum effective dose (MED), block of licking/biting behavior during the late phase of the formalin response: late phase (10-45 minutes)
Method: Test compounds were administered s.c. 1 hour before an intraplantar injection of 50 μL formalin. The time spent licking/biting the injected paw during the early and late phases was scored.
Male Sprague-Dawley rats (70-90 g) were habituated to perspex observation chambers (24 cm×24 cm×24 cm) for at least 15 minutes prior to testing. Formalin-induced hind paw licking and biting was initiated by a 50 μL subcutaneous injection of a 5% formalin solution (5% formaldehyde in isotonic saline) into the plantar surface of the left hind paw. Immediately following the formalin injection, licking/biting of the injected hind paw was scored in 5 minute bins for 60 minutes. The results are expressed as mean combined licking/biting time for the early phase (0-10 minutes) and late phase (10-45 minutes).

[2] = test system: carrageenin-induced thermal hyperalgesia; assay: Carrageenin-induced thermal hyperalgesia (Hargreaves model); format: in vivo, rat; settings: s.c. 2.5 hours after carrageenin; PWL at 3 and 4 hours
Method: Nociceptive thermal thresholds were measured in the rat using the Hargreaves apparatus. Baseline (BL) measurements were taken before animal s were administered with 100 μL of 2% carrageenin by intraplantar injection. Results are shown as mean (±SEM) of 8 animals per group.
(§1) On the test Day, 2 to 3 baseline measurements were taken before rats (male Sprague-Dawley 70-90 g) were administered with 100 μL of 2% carrageenin by intraplantar injection into the right hind paw. Animals were dosed with the test drug after development of peak hyperalgesia. Separate groups of animals were used for the mechanical and thermal hyperalgesia studies.
Baseline paw withdrawal latencies (PWL) were obtained for each rat using the Hargreaves model. Carrageenin was injected as described above. Animals were then tested for thermal hyperalgesia at 2 hours postcarrageenin administration. Gabapentin (10-100 mg/kg) or CI-1008 (1-30 mg/kg) was administered s.c. 2.5 hours after carrageenin, and PWL were reevaluated at 3 and 4 hours postcarrageenin administration. Carrageenin induced a significant reduction in paw withdrawal latency at 2, 3, and 4 hours following injection, indicating the induction of thermal hyperalgesia (FIG. 3). Gabapentin and CI-1008 dose-dependently antagonized the hyperalgesia with a MED of 30 and 3 mg/kg (FIG. 3).

[3] = test system: carrageenin-induced mechanical hyperalgesia; assay: Carrageenin-induced mechanical hyperalgesia (rat paw pressure test); format: in vivo; settings: for MED, antagonism of carrageenin-induced mechanical hyperalgesia: s.c. 3.5 hours after carrageenin
Method: Nociceptive pressure thresholds were measured in the rat using the paw pressure test. Baseline (BL) measurements were taken before animals were administered with 100 μL of 2% carrageenin by intraplantar injection. Results are shown as mean (±SEM) of 8 animals per group.
as §1
Nociceptive pressure thresholds were measured in the rat paw pressure test using an analgesimeter (Ugo Basile). A cut-off point of 250 g was used to prevent any damage to the paw. The intraplantar injection of carrageenin produced a reduction in the nociceptive pressure threshold between 3 and 5 hours after injection, indicating induction of hyperalgesia. […] Gabapentin (3-300 mg/kg, s.c.) and CI-1008 (1-100 mg/kg, s.c.) dose-dependently antagonized the hyperalgesia, with respective MED of 10 and 3 mg/kg (FIG. 2).

[4] = test system: tactile allodynia after incision of the rat plantaris muscle; assay: Tactile allodynia in the rat postoperative pain model (von Frey hairs); format: in vivo; settings: for effect on tactile allodynia scores in the contralateral paw: up to the highest dose tested; for MED, prevention of development of tactile allodynia: s.c. 1 hour before surgery
Method: Gabapentin or S-(+)-3-isobutylgaba was administered 1 hour before surgery. Morphine was administered 0.5 hour before surgery. Paw withdrawal thresholds to von Frey hair filaments were determined for both ipsilateral and contralateral paws. For clarity, contralateral paw data for drug-treated animals is not shown. Baseline (BL) measurements were taken before surgery, and withdrawal thresholds were reassessed 3, 25, 49, and 73 hours postsurgery. […] In FIG. 5, —●— is vehicle contralateral, —◯— is vehicle ispsilateral. For morphine (5a), —Δ— is 1 mg/kg, —▭— is 3, and —⋄— is 16.
(§2) S-(+)-3-Isobutylgaba (S-(+)-IBG) was administered 1 hour after surgery. Thermal paw withdrawal latencies, determined using the rat plantar test, and paw withdrawal thresholds to von Frey hair filaments, were determined in separate groups of animals for both ipsilateral and contralateral paws. For clarity only the ipsilateral paw data is shown. Baseline (BL) measurements were taken before surgery and withdrawal thresholds were reassessed up to 6 hours postsurgery.
(§3) Male Sprague-Dawley rats (250-300 g), obtained from Bantin and Kingmen, (Hull, U. K.) were used in all experiments. Before surgery, animals were housed in groups of 6 under a 12-hour light/dark cycle (lights on at 07 hour 00 minute) with food and water ad libitum. Postoperatively, animals were housed in pairs on “Aqua-sorb” bedding consisting of air laid cellulose (Beta Medical and Scientific, Sale, U.K.) under the same conditions. All experiments were carried out by an observer blind to drug treatments.
(§4) Animals were anaesthetized with 2% isofluorane and 1.4 […] mixture which was maintained during surgery via a nose cone. The plantar surface of the right hind paw was prepared with 50% ethanol, and a 1-cm longitudinal incision was made through skin and fascia, starting 0.5 cm from the edge of the heel and extending towards the toes. The plantaris muscle was elevated using forceps and incised longitudinally. The wound was closed using two simple sutures of braided silk with a FST-02 needle. The wound site was covered with Terramycin spray and Auromycin powder. […] The sutures were removed after 48 hours.
Tactile allodynia was measured using Semmes-Weinstein von Frey hairs (Stoelting, Ill., U.S.A.). Animals were placed into wire-mesh-bottom cages allowing access to the underside of their paws. The animals were habituated to this environment prior to the start of the experiment. Tactile allodynia was tested by touching the plantar surface of the animals hind paw with von Frey hairs in ascending order of force (0.7, 1.2, 1.5, 2, 3.6, 5.5, 8.5, 11.8, 15. 1, and 29 g) until a paw withdrawal response was elicited. Each von Frey hair was applied to the paw for 6 seconds, or until a response occurred. Once a withdrawal response was established, the paw was retested, starting with the next descending von Frey hair until no response occurred. The highest force of 29 g lifted the paw as well as eliciting a response, thus represented the cut-off point. Each animal had both hind paws tested in this manner. The lowest amount of force required to elicit a response was recorded as withdrawal threshold in grams. When compounds were administered before surgery, the same animals were used to study drug effects on tactile, allodynia, and thermal hyperalgasia, with each animal being tested for tactile allodynia 1 hour after thermal hyperalgesia. Separate groups of animals were used for examination of tactile allodynia and thermal hyperalgesia when S-(+)-3-isobutylgaba was administered after surgery.
(§5) Data obtained for thermal hyperalgesia was subjected to a one-way (analysis of variance) ANOVA followed by a Dunnett's t-test. Tactile allodynia results obtained with the von Frey hairs were subjected to an individual Mann Whitney t-test.

[5] = test system: thermal hyperalgesia after incision of the rat plantaris muscle; assay: Thermal hyperalgesia in the rat postoperative pain model (rat plantar test); format: in vivo; settings: for MED, block of development of thermal hyperalgesia: single dose s.c. before surgery (1 hour; morphine 0.5 hour)
Method: Gabapentin or S-(+)-3 isobutylgaba was administered 1 hour before surgery. Morphine was administered 0.5 hour before surgery. Thermal paw withdrawal latencies (PWL) were determined for both ipsilateral and contralateral paws using the rat plantar test. For clarity contralateral paw data for drug-treated animals is not shown. Baseline (BL) measurements were taken before surgery and PWL were reassessed 2, 24, 48, and 72 hours postsurgery. […] In the figure, —●— is vehicle contralateral, —◯— is vehicle ispsilateral, —Δ— is 1 mg/kg morphine, —▭— is 3, and —⋄— is 6 for morphine in 4a. In 4b, —Δ— is 3, —▭— is 10, and —⋄— is 30 for gabapentin. In 4c, —Δ— is 3 mg/kg, —▭— is 10, and —⋄— is 30 for S-(+)-isobutylgaba.
as §2, §3, §4
Thermal hyperalgesia was assessed using the rat plantar test (Ugo Basile, Italy) following a modified method of Hargreaves, et al., 1988. Rats were habituated to the apparatus which consisted of three individual perspex boxes on an elevated glass table. A mobile radiant heat source was located under the table and focused onto the hind paw and paw withdrawal latencies (PWL) were recorded. There was an automatic cut off point of 22.5 seconds to prevent tissue damage. PWLs were taken 2 to 3 times for both hind paws of each animal, the mean of which represented baselines for right and left hind paws. The apparatus was calibrated to give a PWL of approximately 10 seconds. PWL(s) were reassessed following the same protocol as above 2, 24, 48, and 72 hours postoperatively.
as §5

[6] = 30 mg/kg, 1 hour before surgery
[7] = 30 mg/kg s.c. 1 hour before surgery

| SMILES | blockade of the late phase of the formalin response ([1]; 100 mg/kg s.c. 1 hour before formalin) | MED, antagonism of carrageenin-induced thermal hyperalgesia [2] [mg/kg] | MED, antagonism of carrageenin-induced mechanical hyperalgesia [3] [mg/kg] | duration of blockade of the allodynia response [4, 6] [days] | effect on tactile allodynia scores in the contralateral paw [4] | MED, prevention of development of tactile allodynia [4] [mg/kg] | block of induction and maintenance of allodynia ([4]; summary statement) | duration of effect on thermal hyperalgesia [5, 7] | effect on PWL of the contralateral paw in the thermal hyperalgesia test ([5]; up to the highest dose tested) | MED, block of development of thermal hyperalgesia [5] [mg/kg] | block of induction and maintenance of hyperalgesia ([5]; summary statement) | effect on the early phase of the formalin response [1] | minimum effective dose (MED), block of licking/biting behavior during the late phase of the formalin response [1] [mg/kg] | duration of effect on tactile allodynia ([4]; 10 mg/kg, 1 hour before surgery) [h] | duration of effect on tactile allodynia [4, 6] [h] | duration of prevention of the hyperalgesic response [5, 7] [h] | effect on carrageenin-induced mechanical hyperalgesia ([3]; 3 mg/kg, s.c.) | duration of prevention of development of tactile allodynia ([4]; highest dose of 6 mg/kg, 0.5 hour before surgery) [h] | effect on PWL of the contralateral paw in the thermal hyperalgesia test ([5]; 6 mg, s.c., data not shown) | duration of antagonism of development of thermal hyperalgesia ([5]; 1-6 mg/kg s.c. 0.5 hour before surgery) [h] |
| --- | --- | --- | --- | --- | --- | --- | --- | --- | --- | --- | --- | --- | --- | --- | --- | --- | --- | --- | --- | --- |
| CC(C)CC(CN)CC(=O)O (centres unmarked) [3-aminomethyl-5-methyl-hexanoic acid, 3-aminomethyl-5-methylhexanoic acid] | only a modest blockade |  |  |  |  |  |  |  |  |  |  |  |  |  |  |  |  |  |  |  |
| CC(C)C[C@H](CN)CC(=O)O [CI-1008, (S)-3-(aminomethyl)-5-methylhexanoic acid] |  | 3 | 3 | 3 | did not affect | 10 | completely blocked | up to 3 days | did not affect PWL | 3 | completely blocked | neither of the compounds affected the early phase | 10 |  |  |  |  |  |  |  |
| NCC1(CC(=O)O)CCCCC1 [Gabapentin, 1-(aminomethyl)-cyclohexaneacetic acid] |  | 30 | 10 |  | did not affect | 10 |  |  | did not affect PWL | 30 |  | neither of the compounds affected the early phase | 30 | 25 | 49 | 24 |  |  |  |  |
| CN1CC[C@]23c4c5ccc(O)c4O[C@H]2[C@@H](O)C=C[C@H]3[C@H]1C5 [Morphine] |  |  |  |  |  |  |  |  |  | 1 |  |  |  |  |  |  | complete blockade of hyperalgesia | 3 | increased PWL of the contralateral paw | 24 |
